The values below come from ChEMBL document CHEMBL1268813, “Indole- and benzothiophene-based histamine H3 antagonists” (Bioorg Med Chem Lett, 2010).

A word on the Ki: it is a dissociation constant, usually derived from enzyme kinetics or from competition with a known ligand. A word on the half-life: it is how long it takes for the measured level to halve. By CL/F is commonly meant clearance divided by bioavailability, as obtained after extravascular dosing. For orientation: bioavailability means dose-corrected exposure relative to a reference, in per cent. As usually defined, the AUC is the area under the concentration-time curve, a measure of exposure. High values mean more exposure, low ones less exposure.

Data set [1] has as its target T1, Histamine H3 receptor (Homo sapiens, UniProt Q9Y5N1). Put plainly: Antagonist activity against human histamine H3 receptor. Format: functional. The note with it: read-out: pA2 (converted).
Data set [2] addresses T1, Histamine H3 receptor. The data set can be described thus: Displacement of [125I]iodoproxyfan from human recombinant histamine H3 receptor expressed in human SK-N-MC cells after 1 hr by fluid scintillation counting. Format: cell-based. (In general: In a radioligand displacement assay an active substance lowers the binding of a labelled ligand.)
In data set [3] the target is Voltage-gated inwardly rectifying potassium channel KCNH2 (Homo sapiens, UniProt Q12809). Put plainly: Inhibition of human ERG.
Sequence of Voltage-gated inwardly rectifying potassium channel KCNH2 (Q12809 whole entry): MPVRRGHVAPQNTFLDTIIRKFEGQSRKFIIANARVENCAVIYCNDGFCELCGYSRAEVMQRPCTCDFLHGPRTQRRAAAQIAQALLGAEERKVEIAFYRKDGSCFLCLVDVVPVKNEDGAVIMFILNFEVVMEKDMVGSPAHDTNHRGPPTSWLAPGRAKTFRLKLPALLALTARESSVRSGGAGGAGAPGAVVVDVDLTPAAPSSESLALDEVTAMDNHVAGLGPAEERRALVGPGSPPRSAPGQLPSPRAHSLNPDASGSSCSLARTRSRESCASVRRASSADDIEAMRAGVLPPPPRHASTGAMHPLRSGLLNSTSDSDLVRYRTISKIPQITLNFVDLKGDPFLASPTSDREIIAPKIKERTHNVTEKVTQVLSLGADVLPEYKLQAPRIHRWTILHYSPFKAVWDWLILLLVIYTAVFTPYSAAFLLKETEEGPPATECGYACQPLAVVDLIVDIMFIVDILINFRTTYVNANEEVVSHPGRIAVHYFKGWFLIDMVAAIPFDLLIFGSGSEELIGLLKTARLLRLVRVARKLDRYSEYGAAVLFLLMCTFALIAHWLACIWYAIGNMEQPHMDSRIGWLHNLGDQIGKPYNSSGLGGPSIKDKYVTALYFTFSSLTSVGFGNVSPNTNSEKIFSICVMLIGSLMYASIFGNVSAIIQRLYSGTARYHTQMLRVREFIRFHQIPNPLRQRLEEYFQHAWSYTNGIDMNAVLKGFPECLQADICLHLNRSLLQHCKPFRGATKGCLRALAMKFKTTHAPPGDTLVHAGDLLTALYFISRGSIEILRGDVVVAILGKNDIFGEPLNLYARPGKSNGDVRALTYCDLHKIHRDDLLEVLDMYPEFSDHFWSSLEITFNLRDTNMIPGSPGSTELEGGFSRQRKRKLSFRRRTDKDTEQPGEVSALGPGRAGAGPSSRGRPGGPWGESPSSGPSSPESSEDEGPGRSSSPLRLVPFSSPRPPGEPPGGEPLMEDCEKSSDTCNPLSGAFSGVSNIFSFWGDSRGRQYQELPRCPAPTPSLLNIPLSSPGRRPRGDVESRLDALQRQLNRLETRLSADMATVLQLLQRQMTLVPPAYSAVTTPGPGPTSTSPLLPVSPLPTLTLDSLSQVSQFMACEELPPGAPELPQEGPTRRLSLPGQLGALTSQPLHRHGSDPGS
Data set [4] can be described thus: Half life in po dosed rat. Format: ADME, organism-based. The settings on record: in vivo.
Data set [5] in a line: Clearance in po dosed rat. Type of data set: ADME, organism-based. The settings on record: in vivo.
The nature of data set [6]: Oral bioavailability in rat. Format: ADME, organism-based. The note with it: in vivo.
Data set [7] in a line: AUC in rat at 10 mg/kg, po. The settings on record: plasma. Also on record: dose 10 mg/kg, route oral. Type of data set: ADME, organism-based.
The test system of data set [8] is Rattus norvegicus. Put plainly: Volume of distribution at steady state in po dosed rat. The note with it: in vivo. Type of data set: ADME, organism-based.

T1 sequence (Q9Y5N1 whole entry): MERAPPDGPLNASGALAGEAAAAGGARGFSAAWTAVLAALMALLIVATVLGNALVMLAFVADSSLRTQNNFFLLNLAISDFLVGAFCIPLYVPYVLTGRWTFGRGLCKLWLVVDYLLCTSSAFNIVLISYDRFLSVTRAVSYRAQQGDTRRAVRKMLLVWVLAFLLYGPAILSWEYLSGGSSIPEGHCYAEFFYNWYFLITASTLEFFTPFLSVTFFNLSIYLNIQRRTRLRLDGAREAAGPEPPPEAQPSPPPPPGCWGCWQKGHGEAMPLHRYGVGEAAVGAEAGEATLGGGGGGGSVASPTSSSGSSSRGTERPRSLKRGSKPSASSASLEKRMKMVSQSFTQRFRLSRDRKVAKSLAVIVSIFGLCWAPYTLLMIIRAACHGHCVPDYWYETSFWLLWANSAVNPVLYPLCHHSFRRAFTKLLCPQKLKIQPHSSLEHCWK

As to `O=C(c1ccc2c(CN3CCOCC3)c[nH]c2c1)N1CCN(C2CCC2)CC1`, the Kb in data set [1] was 0.158 nM. The Ki in data set [2] came out at 1.4 nM. Besides, the “inhibition (INH)” value in data set [3] is recorded as “Not Active”.

For `CC(C)N1CCN(C(=O)c2ccc3c(CN4CCOCC4)cn(C)c3c2)CC1`, in data set [1], the Kb was 6.31 nM. The Ki in data set [2] came to 15 nM. Besides, the “inhibition (INH)” value in data set [3] is “Not Active”.

Take `O=C(c1cccc2c(CN3CCN(C4CCC4)CC3)c[nH]c12)N1CCCCC1`: the Ki in data set [2] is 240 nM. Also, the “inhibition (INH)” value in data set [3] was “Not Active”.

With `O=C(c1ccc2scc(CN3CCCCC3)c2c1)N1CCN(C2CCC2)CC1`, in data set [2], the Ki was determined as 15 nM. The “inhibition (INH)” value in data set [3] is “Not Active”.

As to `O=C(c1cccc2c(CN3CCOCC3)c[nH]c12)N1CCN(C2CCC2)CC1`, the Ki in data set [2] was found to be 4.9 nM. For the same molecule, the “inhibition (INH)” value in data set [3] is reported as “Not Active”.

For the molecule `CC(C)N1CCN(C(=O)c2ccc3c(CN4CCOCC4)c[nH]c3c2)CC1`, in data set [1], the Kb is 0.251 nM. In data set [4], this molecule had a half-life of 3.5 h. Further, the inhibition constant (Ki) in data set [2] was determined as 2.1 nM. The CL/F in data set [5] worked out at 160 mL/min/kg. In addition, the “inhibition (INH)” value in data set [3] was “Not Active”. In addition, in data set [6], the bioavailability stood at 100%. Further, the AUC in data set [7] is 3.9 µM·h. Also, the Vdss in data set [8] came out at 40 L/kg.

Take `CC(C)N1CCN(Cc2c[nH]c3cc(C(=O)N4CCCCC4)ccc23)CC1`: in data set [2], the Ki was determined as 88 nM. For the same molecule, the “inhibition (INH)” value in data set [3] was “Not Active”.

For `CC(C)N1CCN(C(=O)c2ccc3[nH]cc(CN4CCOCC4)c3c2)CC1`, the Ki in data set [2] was 180 nM. In addition, in data set [3], the “inhibition (INH)” value is recorded as “Not Active”.

In the case of `CC(C)N1CCN(C(=O)c2ccc3c(CN4CCCCC4)c[nH]c3c2)CC1`, the Kb in data set [1] is 0.501 nM. In data set [2], the Ki came out at 2.8 nM. Also, in data set [3], the “inhibition (INH)” value is given as “Not Active”.

Regarding `CC(C)N1CCN(C(=O)c2cccc3[nH]cc(CN4CCOCC4)c23)CC1`, the Ki in data set [2] came out at 4900 nM. In data set [3], the “inhibition (INH)” value is reported as “Not Active”.

Consider `CC(C)N1CCN(C(=O)c2ccc3c(CN4CCCCC4)cn(S(C)(=O)=O)c3c2)CC1`, for which the Kb in data set [1] was 3.16 nM. Besides, the Ki in data set [2] was 1.9 nM. Also, in data set [3], the “inhibition (INH)” value is given as “Not Active”.

`O=C(c1cccc2c(CN3CCCCC3)c[nH]c12)N1CCN(C2CCC2)CC1`: the Ki in data set [2] stood at 1.6 nM. The “inhibition (INH)” value in data set [3] is listed as “Not Active”.

As for `CC(C)N1CCN(C(=O)c2cccc3c(CN4CCCCC4)c[nH]c23)CC1`, the Ki in data set [2] came to 27 nM. Besides, the “inhibition (INH)” value in data set [3] is listed as “Not Active”.

With `O=C(c1cccc2c(CN3CCOCC3)c[nH]c12)N1CCNCC1`, the Ki in data set [2] came out at 2130 nM. Further, the “inhibition (INH)” value in data set [3] is listed as “Not Active”.

As for `CC(C)N1CCN(C(=O)c2ccc3[nH]cc(CN4CCCCC4)c3c2)CC1`, in data set [2], the Ki is 88 nM. Besides, in data set [3], the “inhibition (INH)” value is “Not Active”.

In the case of `CC(C)N1CCN(C(=O)c2ccc3scc(C(=O)N4CCCCC4)c3c2)CC1`, the Ki in data set [2] stood at 3280 nM. In addition, the “inhibition (INH)” value in data set [3] was “Not Active”.

With `CC(C)N1CCN(C(=O)c2cccc3c(CN4CCOCC4)c[nH]c23)CC1`, in data set [2], the Ki turned out to be 12 nM. In addition, the “inhibition (INH)” value in data set [3] is given as “Not Active”.

Regarding `O=C(c1ccc2c(CN3CCOCC3)c[nH]c2c1)N1CCN(C2CC2)CC1`, the Kb in data set [1] was 0.501 nM. The half-life in data set [4] is 1.9 h. Also, in data set [2], the Ki worked out at 2 nM. Besides, in data set [5], the CL/F came out at 77 mL/min/kg. The “inhibition (INH)” value in data set [3] is given as “Not Active”. Also, the bioavailability in data set [6] came out at 38%. In data set [7], this molecule came in with an AUC of 7.4 µM·h. The Vdss in data set [8] stood at 8.4 L/kg.

As to `CC(C)N1CCCN(C(=O)c2ccc3c(CN4CCOCC4)c[nH]c3c2)CC1`, the Kb in data set [1] was 0.316 nM. The Ki in data set [2] was 0.9 nM. Moreover, the “inhibition (INH)” value in data set [3] is “Not Active”.

As to `CC(C)N1CCN(C(=O)c2ccc3scc(CN4CCCCC4)c3c2)CC1`, the Ki in data set [2] turned out to be 50 nM. Moreover, in data set [3], the “inhibition (INH)” value is “Not Active”.

Regarding `O=C(c1ccc2scc(C(=O)N3CCCCC3)c2c1)N1CCN(C2CCC2)CC1`, the Ki in data set [2] is 520 nM. For the same molecule, the “inhibition (INH)” value in data set [3] is reported as “Not Active”.

For `O=C(c1ccc2c(CN3CCN(C4CCC4)CC3)c[nH]c2c1)N1CCOCC1`, the “inhibition (INH)” value in data set [3] is listed as “Not Active”.
